In ChEMBL document CHEMBL3585342, “Exploring the isoform selectivity of TGX-221 related pyrido[1,2-a]pyrimidinone-based Class IA PI 3-kinase inhibitors: synthesis, biological evaluation and molecular modelling” (Bioorg Med Chem, 2015):

Tests used:
[1] = target: Phosphatidylinositol 4,5-bisphosphate 3-kinase catalytic subunit beta isoform (Homo sapiens, UniProt P42338); assay type: cell-based, Sf9
Description: Inhibition of N-terminal His-tagged human p110beta expressed in Sf9 cells co-expressing p85alpha regulatory subunit using phosphatidylinositol substrate and [gamma-33P]-ATP by basic thin layer chromatography technique based lipid kinase assay

[2] = Inhibition of cell proliferation of human NZB5 cells containing wild-type p110alpha gene incubated for 5 days by [3H]thymidine incorporation assay; assay type: functional, cell-based
[3] = Inhibition of cell proliferation of human NZOV9 cells containing wild-type p53 protein and p110alpha Y1021C mutant incubated for 5 days by [3H]thymidine incorporation assay; assay type: functional, cell-based
[4] = target: T1, Phosphatidylinositol 4,5-bisphosphate 3-kinase catalytic subunit delta isoform (Homo sapiens, UniProt O00329); assay type: cell-based, Sf9
T1 sequence (O00329 whole entry): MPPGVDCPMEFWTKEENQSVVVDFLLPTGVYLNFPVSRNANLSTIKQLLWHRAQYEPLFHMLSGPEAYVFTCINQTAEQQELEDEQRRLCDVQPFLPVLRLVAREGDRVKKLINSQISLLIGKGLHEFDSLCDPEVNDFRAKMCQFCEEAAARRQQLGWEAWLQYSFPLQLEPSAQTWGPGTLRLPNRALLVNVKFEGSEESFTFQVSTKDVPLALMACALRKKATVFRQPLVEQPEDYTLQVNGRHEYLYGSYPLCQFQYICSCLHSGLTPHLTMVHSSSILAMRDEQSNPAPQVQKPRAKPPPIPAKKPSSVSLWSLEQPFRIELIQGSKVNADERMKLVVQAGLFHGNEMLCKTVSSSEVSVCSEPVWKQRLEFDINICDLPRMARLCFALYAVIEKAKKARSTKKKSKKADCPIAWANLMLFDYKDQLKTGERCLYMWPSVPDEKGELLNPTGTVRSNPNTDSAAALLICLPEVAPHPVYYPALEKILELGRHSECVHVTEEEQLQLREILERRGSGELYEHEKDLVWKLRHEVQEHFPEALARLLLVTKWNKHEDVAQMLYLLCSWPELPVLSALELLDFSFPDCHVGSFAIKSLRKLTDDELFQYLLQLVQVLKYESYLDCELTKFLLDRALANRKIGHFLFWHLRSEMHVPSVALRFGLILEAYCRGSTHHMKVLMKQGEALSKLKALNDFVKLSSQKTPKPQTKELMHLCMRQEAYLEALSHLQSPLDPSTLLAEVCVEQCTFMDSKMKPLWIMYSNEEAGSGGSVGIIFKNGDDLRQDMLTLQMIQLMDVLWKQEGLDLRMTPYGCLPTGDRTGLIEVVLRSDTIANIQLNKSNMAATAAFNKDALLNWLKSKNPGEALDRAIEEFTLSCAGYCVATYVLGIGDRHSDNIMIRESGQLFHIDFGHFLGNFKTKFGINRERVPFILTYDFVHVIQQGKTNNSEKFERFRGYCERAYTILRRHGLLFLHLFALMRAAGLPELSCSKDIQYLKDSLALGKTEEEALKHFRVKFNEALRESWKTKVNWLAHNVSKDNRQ
Description: Inhibition of N-terminal His-tagged human p110delta expressed in Sf9 cells co-expressing p85alpha regulatory subunit using phosphatidylinositol substrate and [gamma-33P]-ATP by basic thin layer chromatography technique based lipid kinase assay

[5] = target: Phosphatidylinositol 4,5-bisphosphate 3-kinase catalytic subunit alpha isoform (Homo sapiens, UniProt P42336); assay type: cell-based, Sf9
Sequence of Phosphatidylinositol 4,5-bisphosphate 3-kinase catalytic subunit alpha isoform (P42336 whole entry, canonical isoform): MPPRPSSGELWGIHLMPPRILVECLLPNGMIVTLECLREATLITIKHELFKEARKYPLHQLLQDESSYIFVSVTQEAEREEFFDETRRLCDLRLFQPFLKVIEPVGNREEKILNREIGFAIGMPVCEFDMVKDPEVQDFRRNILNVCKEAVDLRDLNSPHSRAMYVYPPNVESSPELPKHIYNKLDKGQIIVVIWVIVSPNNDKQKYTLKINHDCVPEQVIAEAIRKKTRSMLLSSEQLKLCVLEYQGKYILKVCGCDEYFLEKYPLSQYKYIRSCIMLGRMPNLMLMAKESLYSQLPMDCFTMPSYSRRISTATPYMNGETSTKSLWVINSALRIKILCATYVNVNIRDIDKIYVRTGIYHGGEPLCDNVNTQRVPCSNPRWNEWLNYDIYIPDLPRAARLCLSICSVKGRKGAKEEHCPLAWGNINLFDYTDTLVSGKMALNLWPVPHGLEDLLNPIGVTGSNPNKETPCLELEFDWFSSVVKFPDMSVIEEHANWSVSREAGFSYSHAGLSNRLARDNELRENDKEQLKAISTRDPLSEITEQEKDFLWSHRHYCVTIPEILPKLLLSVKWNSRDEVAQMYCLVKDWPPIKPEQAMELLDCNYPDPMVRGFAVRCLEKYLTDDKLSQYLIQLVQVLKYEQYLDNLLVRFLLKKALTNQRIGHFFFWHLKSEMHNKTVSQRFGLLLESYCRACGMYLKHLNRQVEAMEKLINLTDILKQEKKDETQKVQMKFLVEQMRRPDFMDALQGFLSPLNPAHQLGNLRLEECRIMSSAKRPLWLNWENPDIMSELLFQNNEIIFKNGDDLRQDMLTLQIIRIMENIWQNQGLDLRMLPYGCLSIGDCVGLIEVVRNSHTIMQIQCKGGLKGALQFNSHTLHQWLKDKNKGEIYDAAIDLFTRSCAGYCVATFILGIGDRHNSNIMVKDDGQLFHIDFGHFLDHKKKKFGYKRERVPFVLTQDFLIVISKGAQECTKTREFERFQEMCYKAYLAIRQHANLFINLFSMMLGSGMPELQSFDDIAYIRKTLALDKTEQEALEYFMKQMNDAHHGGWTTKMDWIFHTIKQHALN
Description: Inhibition of N-terminal His-tagged human p110alpha expressed in Sf9 cells co-expressing p85alpha regulatory subunit using phosphatidylinositol substrate and [gamma-33P]-ATP by basic thin layer chromatography technique based lipid kinase assay

Sequence of Phosphatidylinositol 4,5-bisphosphate 3-kinase catalytic subunit beta isoform (P42338 whole entry, canonical isoform): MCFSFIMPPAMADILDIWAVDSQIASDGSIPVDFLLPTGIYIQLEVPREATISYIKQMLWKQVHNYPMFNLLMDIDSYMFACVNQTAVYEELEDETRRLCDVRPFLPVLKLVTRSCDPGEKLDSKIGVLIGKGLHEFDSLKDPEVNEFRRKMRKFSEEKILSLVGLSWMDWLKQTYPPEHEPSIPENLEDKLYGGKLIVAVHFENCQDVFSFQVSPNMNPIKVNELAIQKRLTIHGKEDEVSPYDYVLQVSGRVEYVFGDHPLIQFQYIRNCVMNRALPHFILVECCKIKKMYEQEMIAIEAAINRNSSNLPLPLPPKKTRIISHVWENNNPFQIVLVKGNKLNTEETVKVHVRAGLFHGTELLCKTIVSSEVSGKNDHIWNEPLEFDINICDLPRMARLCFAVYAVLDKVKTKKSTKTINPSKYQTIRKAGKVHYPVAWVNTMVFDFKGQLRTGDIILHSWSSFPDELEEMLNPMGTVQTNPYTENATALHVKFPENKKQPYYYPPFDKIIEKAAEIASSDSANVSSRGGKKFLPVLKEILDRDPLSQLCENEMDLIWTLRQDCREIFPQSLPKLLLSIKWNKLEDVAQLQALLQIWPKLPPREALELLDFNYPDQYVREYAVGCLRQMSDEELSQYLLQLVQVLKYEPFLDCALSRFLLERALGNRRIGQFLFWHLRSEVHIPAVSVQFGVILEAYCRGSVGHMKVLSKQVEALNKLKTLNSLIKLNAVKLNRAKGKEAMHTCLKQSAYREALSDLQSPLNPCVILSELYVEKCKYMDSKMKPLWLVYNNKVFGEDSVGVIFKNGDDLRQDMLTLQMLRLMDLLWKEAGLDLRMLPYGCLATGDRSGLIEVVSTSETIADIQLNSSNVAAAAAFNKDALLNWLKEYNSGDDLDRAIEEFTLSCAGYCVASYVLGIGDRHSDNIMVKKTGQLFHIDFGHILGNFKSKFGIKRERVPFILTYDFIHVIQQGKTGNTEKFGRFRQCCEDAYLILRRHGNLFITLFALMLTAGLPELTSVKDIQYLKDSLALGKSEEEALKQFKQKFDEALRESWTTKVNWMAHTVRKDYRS

**Q.** For Cc1cc(NCc2ccccc2C)c2nc(N3CCOCC3)cc(=O)n2c1, which IC50 [1] is on record?
**A.** 0.02 µM

**Q.** What about the IC50 [2] of the same molecule?
**A.** 1.5 µM

**Q.** And the IC50 [3]?
**A.** 5 µM

**Q.** With O=c1cc(N2CCOCC2)nc2c(CS(=O)(=O)c3ccccc3)cccn12 as the molecule, how does the IC50 [4] read?
**A.** > 10 µM

**Q.** What about the IC50 [1] of the same molecule?
**A.** 4.8 µM

**Q.** And the IC50 [5]?
**A.** > 10 µM

**Q.** What about the IC50 [2] of the same molecule?
**A.** > 20 µM

**Q.** And the IC50 [3]?
**A.** > 20 µM

**Q.** Which IC50 [4] does the source give for O=c1cc(N2CCOCC2)nc2c(CNc3ccccc3)cccn12 here?
**A.** 0.47 µM

**Q.** What about the IC50 [1] of the same molecule?
**A.** 0.03 µM

**Q.** What about the IC50 [5] of the same molecule?
**A.** 1.1 µM

**Q.** Which results are given for CN(Cc1cccn2c(=O)cc(N3CCOCC3)nc12)c1ccccc1?
**A.** IC50 [4]: 0.27 µM; IC50 [1]: 0.03 µM; IC50 [5]: 0.79 µM; IC50 [2]: 12 µM; IC50 [3]: 10 µM

**Q.** Which IC50 [4] does the source give for Cc1ccccc1NCc1cccn2c(=O)cc(N3CCOCC3)nc12 here?
**A.** 0.47 µM

**Q.** And the IC50 [1]?
**A.** 0.02 µM

**Q.** And the IC50 [5]?
**A.** 1.8 µM

**Q.** Which IC50 [4] does the source give for Cc1cccc(NCc2cccn3c(=O)cc(N4CCOCC4)nc23)c1 here?
**A.** 0.81 µM

**Q.** And the IC50 [1]?
**A.** 0.24 µM

**Q.** And the IC50 [5]?
**A.** 1.1 µM

**Q.** And the IC50 [2]?
**A.** 3 µM

**Q.** Which IC50 [4] does the source give for Cc1ccc(NCc2cccn3c(=O)cc(N4CCOCC4)nc23)cc1 here?
**A.** 0.71 µM

**Q.** What about the IC50 [1] of the same molecule?
**A.** 4.6 µM

**Q.** And the IC50 [5]?
**A.** 6.8 µM

**Q.** What about the IC50 [2] of the same molecule?
**A.** 5.5 µM

**Q.** What about the IC50 [3] of the same molecule?
**A.** 5.8 µM

**Q.** Which IC50 [4] does the source give for O=c1cc(N2CCOCC2)nc2c(CNc3ccc(Cl)cc3)cccn12 here?
**A.** 1.1 µM

**Q.** And the IC50 [1]?
**A.** 0.31 µM

**Q.** And the IC50 [5]?
**A.** 3.1 µM

**Q.** And the IC50 [2]?
**A.** > 20 µM

**Q.** What about the IC50 [3] of the same molecule?
**A.** 15 µM

**Q.** Which IC50 [4] does the source give for COc1ccc(NCc2cccn3c(=O)cc(N4CCOCC4)nc23)cc1 here?
**A.** 0.24 µM

**Q.** What about the IC50 [1] of the same molecule?
**A.** 2.1 µM

**Q.** What about the IC50 [5] of the same molecule?
**A.** 0.35 µM

**Q.** And the IC50 [2]?
**A.** 0.34 µM

**Q.** What about the IC50 [3] of the same molecule?
**A.** 9.6 µM

**Q.** With Cc1ccc(S(=O)(=O)NCc2cccn3c(=O)cc(N4CCOCC4)nc23)cc1 as the molecule, how does the IC50 [4] read?
**A.** 0.6 µM

**Q.** And the IC50 [1]?
**A.** 7.4 µM

**Q.** And the IC50 [5]?
**A.** 6.5 µM

**Q.** What about the IC50 [2] of the same molecule?
**A.** 18 µM

**Q.** And the IC50 [3]?
**A.** > 20 µM

**Q.** With O=c1cc(N2CCOCC2)nc2c(CSc3ccccc3)cccn12 as the molecule, how does the IC50 [4] read?
**A.** 0.57 µM

**Q.** What about the IC50 [1] of the same molecule?
**A.** 0.57 µM

**Q.** What about the IC50 [5] of the same molecule?
**A.** 1.5 µM

**Q.** What about the IC50 [2] of the same molecule?
**A.** 7.8 µM

**Q.** And the IC50 [3]?
**A.** 6.3 µM

**Q.** Which results are given for O=c1cc(N2CCOCC2)nc2c(COc3ccccc3)cccn12?
**A.** IC50 [4]: 0.47 µM; IC50 [1]: 0.23 µM; IC50 [5]: 1.5 µM; IC50 [2]: 17 µM; IC50 [3]: 11 µM

**Q.** Which IC50 [4] does the source give for Cc1ccc(OCc2cccn3c(=O)cc(N4CCOCC4)nc23)cc1 here?
**A.** 0.55 µM

**Q.** And the IC50 [1]?
**A.** 1 µM

**Q.** What about the IC50 [5] of the same molecule?
**A.** 2.5 µM

**Q.** What about the IC50 [2] of the same molecule?
**A.** 13 µM

**Q.** What about the IC50 [3] of the same molecule?
**A.** 8.2 µM

**Q.** For COc1ccc(OCc2cccn3c(=O)cc(N4CCOCC4)nc23)cc1, which IC50 [4] is on record?
**A.** 0.46 µM

**Q.** And the IC50 [1]?
**A.** 1.4 µM

**Q.** What about the IC50 [5] of the same molecule?
**A.** 1.6 µM

**Q.** What about the IC50 [2] of the same molecule?
**A.** 13 µM

**Q.** And the IC50 [3]?
**A.** 14 µM

**Q.** Which results are given for N#Cc1ccc(OCc2cccn3c(=O)cc(N4CCOCC4)nc23)cc1?
**A.** IC50 [4]: 1.5 µM; IC50 [1]: 1 µM; IC50 [5]: > 10 µM; IC50 [2]: > 20 µM; IC50 [3]: 18 µM

**Q.** For Cc1cc(Nc2ccccc2)c2nc(N3CCOCC3)cc(=O)n2c1, which IC50 [4] is on record?
**A.** 0.41 µM

**Q.** What about the IC50 [1] of the same molecule?
**A.** 0.45 µM

**Q.** And the IC50 [5]?
**A.** 1.7 µM

**Q.** What about the IC50 [2] of the same molecule?
**A.** 1.2 µM

**Q.** And the IC50 [3]?
**A.** 3 µM

**Q.** Which IC50 [4] does the source give for Cc1cc(N(C)c2ccccc2)c2nc(N3CCOCC3)cc(=O)n2c1 here?
**A.** 0.9 µM

**Q.** And the IC50 [1]?
**A.** 0.67 µM

**Q.** What about the IC50 [5] of the same molecule?
**A.** 4.4 µM

**Q.** And the IC50 [2]?
**A.** 2 µM

**Q.** What about the IC50 [3] of the same molecule?
**A.** 5 µM

**Q.** What does the source list for Cc1cc(Nc2ccccc2C)c2nc(N3CCOCC3)cc(=O)n2c1?
**A.** IC50 [4]: 0.31 µM; IC50 [1]: 1.1 µM; IC50 [5]: 1.5 µM; IC50 [3]: 2.2 µM

**Q.** What does the source list for Cc1cccc(Nc2cc(C)cn3c(=O)cc(N4CCOCC4)nc23)c1?
**A.** IC50 [4]: 0.47 µM; IC50 [1]: 1.2 µM; IC50 [5]: > 1 µM; IC50 [2]: 0.9 µM; IC50 [3]: 0.6 µM

**Q.** Which IC50 [4] does the source give for Cc1ccc(Nc2cc(C)cn3c(=O)cc(N4CCOCC4)nc23)cc1 here?
**A.** 1 µM

**Q.** And the IC50 [1]?
**A.** 3.2 µM

**Q.** And the IC50 [5]?
**A.** 2.9 µM

**Q.** And the IC50 [2]?
**A.** 1 µM

**Q.** What about the IC50 [3] of the same molecule?
**A.** 1.6 µM

**Q.** Which IC50 [4] does the source give for Cc1cc(Nc2c(C)cccc2C)c2nc(N3CCOCC3)cc(=O)n2c1 here?
**A.** 0.5 µM

**Q.** And the IC50 [1]?
**A.** 2.1 µM

**Q.** What about the IC50 [5] of the same molecule?
**A.** 3.9 µM

**Q.** And the IC50 [2]?
**A.** 1.5 µM

**Q.** What about the IC50 [3] of the same molecule?
**A.** 1.3 µM

**Q.** Which results are given for Cc1cc(NCc2ccccc2)c2nc(N3CCOCC3)cc(=O)n2c1?
**A.** IC50 [4]: 0.23 µM; IC50 [1]: 0.15 µM; IC50 [5]: 0.5 µM; IC50 [2]: 0.1 µM; IC50 [3]: 0.5 µM
